Data from patent publication US6136847A, “Water-soluble trioxanes as potent and safe antimalarial agents” (Johns Hopkins University, priority 1999, dated 2000).
Converted amounts (≈) assume the structure as drawn. Read-outs that look alike come from different tables or passages of the source.

Tests used:
Plasmodium falciparum = experiment: In vitro antimalarial assay (Plasmodium falciparum); assay type: cell-based; settings: for IC50: Plasmodium falciparum
Protocol: (§1) The protozoan Plasmodium falciparum is a causative agent of malaria, the single most critical infectious disease of mankind. The in vitro antimalarial activity of the C3 -substituted trioxanes was determined according to the method described in Posner et al. (13). The in vivo antimalarial activity was determined as described in Peters et al. (14).
Tables 1 and 2 present a tabulation of a number of compounds which have been synthesized along with the IC50 (in nM).

P. berghei = experiment: In vivo antimalarial assay, mice infected with P. berghei malaria; settings: Plasmodium berghei
Protocol: as §1

[1] = Water solubility in pH 7.4 aqueous solution; assay type: physicochemical
erythrocytes = experiment: Hemolysis of erythrocytes on daily IV administration to rats for 14 days; assay type: in vivo, rat; settings: daily for 14 days, artelinic acid even at a dose four-fold less than MHP-34a
Text: 4. They are nontoxic in therapeutic dose range.

rats = settings: high doses; cited from earlier work
[2] = test system: mouse neuroblastoma cells; settings: cited from earlier work
[3] = C3-Aryl C12-Methoxy Trioxanes, Expansion data (quadruplicate measurements), read-out: Antimalarial Activity, IC50 (Table 1)
[4] = C3-Substituted C12-Methoxy Trioxanes, Expansion data (quadruplicate measurements), read-out: Antimalarial Activity, IC50 (Table 2)
[5] = in vitro, read-out: In vitro antimalarial assay: IC50
[6] = IV, mice infected with P. berghei, read-out: ED90, IV administration

SMILES: CO[C@@H]1O[C@@]2(c3ccc(-c4ccccc4)cc3)CC[C@H]3CCCC[C@]31OO2 (relative stereo) [8a]
- IC50 (Plasmodium falciparum; [3]): 76 nM

SMILES: CO[C@H]1O[C@@]2(c3ccc(-c4ccccc4)cc3)CC[C@H]3CCCC[C@]31OO2 (relative stereo) [8b]
- IC50 (Plasmodium falciparum; [3]): 68 nM

SMILES: CO[C@@H]1O[C@@]2(c3ccc(F)cc3)CC[C@H]3CCCC[C@]31OO2 (relative stereo) [9a]
- IC50 (Plasmodium falciparum; [3]): 65 nM

SMILES: CO[C@H]1O[C@@]2(c3ccc(F)cc3)CC[C@H]3CCCC[C@]31OO2 (relative stereo) [9b]
- IC50 (Plasmodium falciparum; [3]): 30 nM

SMILES: CO[C@@H]1O[C@@]2(c3ccc(F)cc3C)CC[C@H]3CCCC[C@]31OO2 (relative stereo) [10a]
- IC50 (Plasmodium falciparum; [3]): 99 nM

SMILES: CO[C@H]1O[C@@]2(c3ccc(F)cc3C)CC[C@H]3CCCC[C@]31OO2 (relative stereo) [10b]
- IC50 (Plasmodium falciparum; [3]): 34 nM

SMILES: CO[C@@H]1O[C@@]2(c3ccc(CO)cc3)CC[C@H]3CCCC[C@]31OO2 (relative stereo) [12a]
- IC50 (Plasmodium falciparum; [3]): 78 nM

SMILES: CO[C@H]1O[C@@]2(c3ccc(CO)cc3)CC[C@H]3CCCC[C@]31OO2 (relative stereo) [12b]
- IC50 (Plasmodium falciparum; [3]): 15 nM

SMILES: CO[C@@H]1O[C@@]2(c3ccccc3)CC[C@H]3CCCC[C@]31OO2 (relative stereo) [16a]
- IC50 (Plasmodium falciparum; [3]): 100 nM

SMILES: CO[C@H]1O[C@@]2(c3ccccc3)CC[C@H]3CCCC[C@]31OO2 (relative stereo) [16b]
- IC50 (Plasmodium falciparum; [3]): 38 nM

SMILES: CO[C@@H]1O[C@@]2(CF)CC[C@H]3CCCC[C@]31OO2 (relative stereo) [118a]
- IC50 (Plasmodium falciparum; [4]): 320 nM

SMILES: CO[C@H]1O[C@@]2(CF)CC[C@H]3CCCC[C@]31OO2 (relative stereo) [118b]
- IC50 (Plasmodium falciparum; [4]): 160 nM

SMILES: CO[C@@H]1O[C@@]2(c3ccc(C(F)(F)F)cc3)CC[C@H]3CCCC[C@]31OO2 (relative stereo) [120a]
- IC50 (Plasmodium falciparum; [4]): 39 nM

SMILES: CO[C@H]1O[C@@]2(c3ccc(C(F)(F)F)cc3)CC[C@H]3CCCC[C@]31OO2 (relative stereo) [120b]
- IC50 (Plasmodium falciparum; [4]): 53 nM

SMILES: O=C(O)c1ccc(CO[C@@H]2O[C@@]3(c4ccc(F)cc4)CC[C@H]4CCCC[C@]42OO3)cc1 (relative stereo) [(p-Carboxy)benzyloxy Trioxane (α)-7a]
- IC50 (Plasmodium falciparum; [5]): 47 nM

SMILES: O=C(O)c1ccc(CO[C@H]2O[C@@]3(c4ccc(F)cc4)CC[C@H]4CCCC[C@]42OO3)cc1 (relative stereo) [(p-Carboxy)benzyloxy Trioxane (β)-7a]
- IC50 (Plasmodium falciparum; [5]): 40 nM

SMILES: CO[C@@H]1O[C@@]2(c3ccc(C(=O)O)cc3)CC[C@H]3CCCC[C@]31OO2 (relative stereo) [MHP-34a, 3-(4'-Carboxyphenyl)-12α-methoxy Trioxane]
- IC50 (Plasmodium falciparum; [5]): 1020 nM
- ED50 (P. berghei; po, read-out: In vivo antimalarial assay: ED50, oral): 9.5 mg/kg
- ED50 (P. berghei; sc, read-out: In vivo antimalarial assay: ED50, subcutaneous): 19.5 mg/kg
- ED90 (P. berghei; sc, read-out: In vivo antimalarial assay: ED90, subcutaneous): 92 mg/kg/day
- ED90 (P. berghei; [6]): 60 mg/kg/day
- ED90 (P. berghei; oral, mice infected with P. berghei, read-out: In vivo antimalarial assay: ED90, oral): 46 mg/kg/day
- solubility [1]: ~90 mM (≈ 30.1 mg/mL)
- hemolysis of erythrocytes (erythrocytes): no hemolysis of erythrocytes

SMILES: CO[C@H]1O[C@@]2(c3ccc(C(=O)O)cc3)CC[C@H]3CCCC[C@]31OO2 (relative stereo) [MHP-34b, 3-(4'-Carboxyphenyl)-12β-methoxy Trioxane]
- IC50 (Plasmodium falciparum; [5]): 150 nM
- ED90 (P. berghei; [6]): 60 mg/kg/day
- solubility [1]: ~60 mM (≈ 20.1 mg/mL)

SMILES: CO[C@@H]1O[C@@]2(c3ccco3)CC[C@H]3CCCC[C@]31OO2 (relative stereo) [compound 13]
- IC50 (Plasmodium falciparum; [3]): 600 nM

SMILES: C[C@@H]1CC[C@H]2[C@@H](C)C(=O)O[C@@H]3O[C@@]4(C)CC[C@@H]1[C@]32OO4 [Artemisinin, artemisinin, reference compound]
- IC50 (Plasmodium falciparum; [5]): 10 nM

SMILES: COC1OC2(CCC(C)C)CCC3CCCCC31OO2 (stereo not drawn) [C3 -(CH3)2 CHCH2 CH2 analog]
- potency increased by a factor of, over the C3 methyl analog (Plasmodium falciparum; relative to C3 methyl analog): 5

SMILES: CCOC(=O)Cn1cccc1[C@@H]1O[C@@H]2O[C@@]3(C)CC[C@H]4[C@H](C)CC[C@@H]([C@H]1C)[C@@]24OO3 [MHP-84, 10a-(1'-(Ethoxycarbonylmethyl)pyrrol-2'-yl)-10-deoxoartemisinin]
- IC50 (Plasmodium falciparum; printed as In vivo, read-out: In vitro antimalarial assay: IC50): 9.1 nM

SMILES: C[C@H]1[C@H](C(=O)O)O[C@@H]2O[C@@]3(C)CC[C@H]4[C@H](C)CC[C@@H]1[C@@]24OO3 [MHP-108, 10α-Carboxy-10-deoxoartemisinin]
- IC50 (Plasmodium falciparum; [5]): 570 nM

SMILES: C[C@H]1[C@H](c2cccn2CC(=O)O)O[C@@H]2O[C@@]3(C)CC[C@H]4[C@H](C)CC[C@@H]1[C@@]24OO3 [MHP-153, 10a-(1'-(Carboxymethyl)pyrrol-2'-yl)-10-deoxoartemisinin]
- IC50 (Plasmodium falciparum; [5]): 36 nM

SMILES: C[C@H]1[C@@H](OCc2ccc(C(=O)O)cc2)O[C@@H]2O[C@@]3(C)CC[C@H]4[C@H](C)CC[C@@H]1[C@@]24OO3 [artelinic acid, Artelinic acid, reference compound]
- ED50 (P. berghei; oral, mice infected with P. berghei, comparator, read-out: SD50, oral): 56 mg/kg
- solubility [1]: ~2 mM (≈ 0.837 mg/mL)
- hemolysis of erythrocytes (erythrocytes): time-dependent hemolysis

SMILES: CO[C@H]1O[C@@H]2O[C@@]3(C)CC[C@H]4[C@H](C)CC[C@@H]([C@H]1C)[C@@]24OO3 [artemether]
- neurotoxicity in rats (rats): neurotoxicity has been seen

SMILES: COc1ccc(C23CCC4CCCCC4(OO2)C(OC)O3)cc1 (stereo not drawn) [compound 11]
- IC50 (Plasmodium falciparum; [3]): > 2500 nM

SMILES: C[C@H]1[C@@H](O)O[C@@H]2O[C@@]3(C)CC[C@H]4[C@H](C)CC[C@@H]1[C@@]24OO3 [dihydroartemesisin, Dihydroartemisinin]
- neurotoxicity in mouse neuroblastoma cells [2]: neurotoxicity has been seen
